Experimental data taken from US8741806B2, “Herbicides” (Syngenta Limited, priority 2009, dated 2014).

Columns and labels:
Assay type in all cases: in vivo
Lolium perenne (LOLPE) [1] = assay: Example B pre-emergence herbicidal activity, glasshouse pot test; conditions: 312 h, rate 250 g/ha, evaluated after 13 days, scale 0-100, read-out: Pre-emergence activity LOLPE (100=total damage to plant; 0=no damage to plant)
Description: (§1) Seeds of a variety of test species were sown in standard soil in pots. After cultivation for one day (pre-emergence) or after 8 days cultivation (post-emergence) under controlled conditions in a glasshouse (at 24/16° C., day/night; 14 hours light; 65% humidity), the plants were sprayed with an aqueous spray solution derived from the formulation of the technical active ingredient of formula I in acetone/water (50:50) solution containing 0.5% Tween 20 (polyoxyethelyene sorbitan monolaurate, CAS RN 9005-64-5). The test plants were then grown in a glasshouse under controlled conditions in a glasshouse (at 24/16° C., day/night; 14 hours light; 65% humidity) and watered twice daily. After 13 days for pre and post-emergence, the test was evaluated (100=total damage to plant; 0=no damage to plant). Setaria faberi (SETFA), Lolium perenne (LOLPE), Alopecurus myosuroides (ALOMY), Echinochloa crus-galli (ECHCG), and Avena fatua (AVEFA). Pre-Emergence Activity

[2] = system: Echinochloa crus-galli (ECHCG); assay: as above; conditions: 312 h, rate 250 g/ha, evaluated after 13 days, scale 0-100, read-out: Pre-emergence activity ECHCG (100=total damage to plant; 0=no damage to plant)
Description: as §1

[3] = system: Alopecurus myosuroides (ALOMY); assay: as above; conditions: 312 h, rate 250 g/ha, evaluated after 13 days, scale 0-100, read-out: Pre-emergence activity ALOMY (100=total damage to plant; 0=no damage to plant)
Description: as §1

Avena fatua (AVEFA) [4] = assay: as above; conditions: 312 h, rate 250 g/ha, evaluated after 13 days, scale 0-100, read-out: Pre-emergence activity AVEFA (100=total damage to plant; 0=no damage to plant)
Description: as §1

Lolium perenne (LOLPE) [5] = assay: Example B post-emergence herbicidal activity, glasshouse pot test; conditions: 312 h, rate 250 g/ha, evaluated after 13 days, scale 0-100, read-out: Post-emergence activity LOLPE (100=total damage to plant; 0=no damage to plant)
Description: as §1, with “Post-Emergence” for “Pre-Emergence”

[6] = system: Echinochloa crus-galli (ECHCG); assay: as above; conditions: 312 h, rate 250 g/ha, evaluated after 13 days, scale 0-100, read-out: Post-emergence activity ECHCG (100=total damage to plant; 0=no damage to plant)
Description: as §1, with “Post-Emergence” for “Pre-Emergence”

[7] = system: Alopecurus myosuroides (ALOMY); assay: as above; conditions: 312 h, rate 250 g/ha, evaluated after 13 days, scale 0-100, read-out: Post-emergence activity ALOMY (100=total damage to plant; 0=no damage to plant)
Description: as §1, with “Post-Emergence” for “Pre-Emergence”

Avena fatua (AVEFA) [8] = assay: as above; conditions: 312 h, rate 250 g/ha, evaluated after 13 days, scale 0-100, read-out: Post-emergence activity AVEFA (100=total damage to plant; 0=no damage to plant)
Description: as §1, with “Post-Emergence” for “Pre-Emergence”

With `CCc1ccc(-c2cc(Cl)c(Cl)cc2Cl)cc1C1=C(O)C(C)(C)CCC1=O` [Compound T20] the pest or weed control at 250 g/ha (Lolium perenne (LOLPE) [1]) was 50%, the pest or weed control at 250 g/ha [2] was 90% and the pest or weed control at 250 g/ha [3] was 0%. For the same compound, the pest or weed control at 250 g/ha (Avena fatua (AVEFA) [4]) was 0%, the pest or weed control at 250 g/ha (Lolium perenne (LOLPE) [5]) was 70% and the pest or weed control at 250 g/ha [6] was 80%. It also gave a pest or weed control at 250 g/ha [7] of 0% and a pest or weed control at 250 g/ha (Avena fatua (AVEFA) [8]) of 40%.
In the case of `CCc1ccc(-c2ccc(Cl)c(F)c2Cl)cc1C1=C(O)CC(C)(C)CC1=O` [Compound T29], the pest or weed control at 250 g/ha (Lolium perenne (LOLPE) [1]) is reported as 70%, the pest or weed control at 250 g/ha [2] is reported as 90% and the pest or weed control at 250 g/ha [3] is reported as 40%. For the same compound, the pest or weed control at 250 g/ha (Avena fatua (AVEFA) [4]) was 0%, the pest or weed control at 250 g/ha (Lolium perenne (LOLPE) [5]) was 100% and the pest or weed control at 250 g/ha [6] was 100%. For the same compound, the pest or weed control at 250 g/ha [7] was 40% and the pest or weed control at 250 g/ha (Avena fatua (AVEFA) [8]) was 30%.
Compound `CCc1ccc(-c2ccc(C(F)(F)F)cc2)cc1C1=C(O)CCCC1=O` [Compound T59] has a pest or weed control at 250 g/ha (Lolium perenne (LOLPE) [1]) of 100%, a pest or weed control at 250 g/ha [2] of 100% and a pest or weed control at 250 g/ha [3] of 100%. The pest or weed control at 250 g/ha (Avena fatua (AVEFA) [4]) was 100%, the pest or weed control at 250 g/ha (Lolium perenne (LOLPE) [5]) was 100% and the pest or weed control at 250 g/ha [6] was 100%. The pest or weed control at 250 g/ha [7] was 100% and the pest or weed control at 250 g/ha (Avena fatua (AVEFA) [8]) was 100%.
`CCc1ccc(-c2ccc(Cl)s2)cc1C1=C(O)CC(C)(C)CC1=O` [Compound T26] showed a pest or weed control at 250 g/ha (Lolium perenne (LOLPE) [1]) of 100%, a pest or weed control at 250 g/ha [2] of 100% and a pest or weed control at 250 g/ha [3] of 20%. For the same compound, the pest or weed control at 250 g/ha (Avena fatua (AVEFA) [4]) was 0%, the pest or weed control at 250 g/ha (Lolium perenne (LOLPE) [5]) was 70% and the pest or weed control at 250 g/ha [6] was 80%. For the same compound, the pest or weed control at 250 g/ha [7] was 30% and the pest or weed control at 250 g/ha (Avena fatua (AVEFA) [8]) was 0%.
`CCc1ccc(-c2ccc(Cl)c(F)c2Cl)cc1C1=C(O)C(C)(C)CCC1=O` [Compound T15] showed a pest or weed control at 250 g/ha (Lolium perenne (LOLPE) [1]) of 90%, a pest or weed control at 250 g/ha [2] of 100% and a pest or weed control at 250 g/ha [3] of 0%. For the same compound, the pest or weed control at 250 g/ha (Avena fatua (AVEFA) [4]) was 0%, the pest or weed control at 250 g/ha (Lolium perenne (LOLPE) [5]) was 50% and the pest or weed control at 250 g/ha [6] was 100%. For the same compound, the pest or weed control at 250 g/ha [7] was 0% and the pest or weed control at 250 g/ha (Avena fatua (AVEFA) [8]) was 40%.
For `CCc1ccc(-c2c(F)cc(Cl)cc2F)cc1C1=C(O)C(C)(C)CCC1=O` [Compound T13], the pest or weed control at 250 g/ha (Lolium perenne (LOLPE) [1]) was 50%, the pest or weed control at 250 g/ha [2] was 40% and the pest or weed control at 250 g/ha [3] was 0%. For the same compound, the pest or weed control at 250 g/ha (Avena fatua (AVEFA) [4]) was 0%, the pest or weed control at 250 g/ha (Lolium perenne (LOLPE) [5]) was 50% and the pest or weed control at 250 g/ha [6] was 100%. The pest or weed control at 250 g/ha [7] was 0% and the pest or weed control at 250 g/ha (Avena fatua (AVEFA) [8]) was 0%.
Compound `CCc1ccc(-c2ccc(Cl)cc2C)cc1C1=C(O)C(C)(C)CCC1=O` [Compound T4, 2-(4′-chloro-4-ethyl-2′-methylbiphen-3-yl)-4,4-dimethylcyclohexane-1,3-dione] has a pest or weed control at 250 g/ha (Lolium perenne (LOLPE) [1]) of 40%, a pest or weed control at 250 g/ha [2] of 90% and a pest or weed control at 250 g/ha [3] of 20%. The pest or weed control at 250 g/ha (Avena fatua (AVEFA) [4]) was 0%, the pest or weed control at 250 g/ha (Lolium perenne (LOLPE) [5]) was 50% and the pest or weed control at 250 g/ha [6] was 100%. For the same compound, the pest or weed control at 250 g/ha [7] was 0% and the pest or weed control at 250 g/ha (Avena fatua (AVEFA) [8]) was 0%.
`CCc1ccc(-c2ccc(Cl)c(F)c2)cc1C1=C(O)C(C)(C)CCC1=O` [Compound T10] gave a pest or weed control at 250 g/ha (Lolium perenne (LOLPE) [1]) of 90%, a pest or weed control at 250 g/ha [2] of 100% and a pest or weed control at 250 g/ha [3] of 0%. It also gave a pest or weed control at 250 g/ha (Avena fatua (AVEFA) [4]) of 20%, a pest or weed control at 250 g/ha (Lolium perenne (LOLPE) [5]) of 90% and a pest or weed control at 250 g/ha [6] of 100%. For the same compound, the pest or weed control at 250 g/ha [7] was 70% and the pest or weed control at 250 g/ha (Avena fatua (AVEFA) [8]) was 90%.
In the case of `CCc1ccc(-c2ccc(Cl)nc2)cc1C1=C(O)CC(C)(C)CC1=O` [Compound T27], the pest or weed control at 250 g/ha (Lolium perenne (LOLPE) [1]) is reported as 0%, the pest or weed control at 250 g/ha [2] is reported as 0% and the pest or weed control at 250 g/ha [3] is reported as 0%. The pest or weed control at 250 g/ha (Avena fatua (AVEFA) [4]) was 0%, the pest or weed control at 250 g/ha (Lolium perenne (LOLPE) [5]) was 80% and the pest or weed control at 250 g/ha [6] was 100%. It also gave a pest or weed control at 250 g/ha [7] of 90% and a pest or weed control at 250 g/ha (Avena fatua (AVEFA) [8]) of 70%.
Work on `CCc1ccc(-c2ccc(Cl)cc2F)cc1C1=C(O)CCCC1=O` [Compound T45] yielded a pest or weed control at 250 g/ha (Lolium perenne (LOLPE) [1]) of 100%, a pest or weed control at 250 g/ha [2] of 100% and a pest or weed control at 250 g/ha [3] of 20%. The pest or weed control at 250 g/ha (Avena fatua (AVEFA) [4]) was 20%, the pest or weed control at 250 g/ha (Lolium perenne (LOLPE) [5]) was 100% and the pest or weed control at 250 g/ha [6] was 100%. For the same compound, the pest or weed control at 250 g/ha [7] was 40% and the pest or weed control at 250 g/ha (Avena fatua (AVEFA) [8]) was 90%.
Compound `CCc1ccc(-c2c(F)cc(Cl)cc2Cl)cc1C1=C(O)CCCC1=O` [Compound T51] has a pest or weed control at 250 g/ha (Lolium perenne (LOLPE) [1]) of 100%, a pest or weed control at 250 g/ha [2] of 80% and a pest or weed control at 250 g/ha [3] of 20%. For the same compound, the pest or weed control at 250 g/ha (Avena fatua (AVEFA) [4]) was 40%, the pest or weed control at 250 g/ha (Lolium perenne (LOLPE) [5]) was 90% and the pest or weed control at 250 g/ha [6] was 90%. The pest or weed control at 250 g/ha [7] was 40% and the pest or weed control at 250 g/ha (Avena fatua (AVEFA) [8]) was 50%.
`CCc1ccc(-c2ccc(Cl)c(Cl)c2)cc1C1=C(O)CCCC1=O` [Compound T49] gave a pest or weed control at 250 g/ha (Lolium perenne (LOLPE) [1]) of 100%, a pest or weed control at 250 g/ha [2] of 100% and a pest or weed control at 250 g/ha [3] of 20%. For the same compound, the pest or weed control at 250 g/ha (Avena fatua (AVEFA) [4]) was 60%, the pest or weed control at 250 g/ha (Lolium perenne (LOLPE) [5]) was 90% and the pest or weed control at 250 g/ha [6] was 100%. The pest or weed control at 250 g/ha [7] was 50% and the pest or weed control at 250 g/ha (Avena fatua (AVEFA) [8]) was 80%.
Work on `CCc1ccc(-c2ccc(Cl)cc2)cc1C1=C(O)C(C)(C)CC(C)(C)C1=O` [Compound T69] yielded a pest or weed control at 250 g/ha (Lolium perenne (LOLPE) [1]) of 90%, a pest or weed control at 250 g/ha [2] of 90% and a pest or weed control at 250 g/ha [3] of 10%. For the same compound, the pest or weed control at 250 g/ha (Avena fatua (AVEFA) [4]) was 0%, the pest or weed control at 250 g/ha (Lolium perenne (LOLPE) [5]) was 100% and the pest or weed control at 250 g/ha [6] was 100%. It also gave a pest or weed control at 250 g/ha [7] of 20% and a pest or weed control at 250 g/ha (Avena fatua (AVEFA) [8]) of 40%.
